Source: patent US20070249682A1, “Novel CD40:CD154 binding interruptor compounds and use thereof to treat immunological complications” (priority 2000, published 2007)

Each compound was assayed against T1, TNF-α:TNFRp60 interaction (Homo sapiens, UniProt P01375) (assay: Binding assay (ELISA): compound inhibits binding of biotin-TNF-α to immobilized TNFRp60 (Example 8)). Details: average value; read-out: IC50 for TNF-α:TNFRp60 binding interruption.
T1 construct: purchased R&D System
T1 sequence (P01375 77-233 limits assumed, species assumed): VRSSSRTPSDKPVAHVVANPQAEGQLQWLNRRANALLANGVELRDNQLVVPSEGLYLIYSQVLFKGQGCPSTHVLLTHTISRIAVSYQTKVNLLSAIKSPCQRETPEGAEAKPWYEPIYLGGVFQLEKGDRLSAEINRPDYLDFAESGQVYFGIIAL
From the text: (§1) IC50, as used herein, is the concentration at which a compound interrupts the interaction of a protein and its receptor to 50% interaction in the assay shown in Example 7 (for interruption of CD40:CD154 interaction) and Example 8 (for interruption of TNF-α:TNFRp60 interaction). Examples of such protein and receptor pairs are CD40:CD154 and TNF-α:TNFRp60.
Binding Assay to Assess whether a Compound Binds to TNF-α and Inhibits TNF-α/TNFRp60 Interaction
1) Ninety-six well plates of Nunc Maxisorp were coated with 100 μl/well of 0.6 ug/ml tumor necrosis factor receptor p60 (TNFRp60) (Browning, J. L.; Douglas, I.; Ngam-ek, A.; Bourdon, P. R.; Ehrenfels, B. N.; Miatkowski, K.; Zafari, M.; Yampaglia, A. M.; Lawton, P.; Meier, W.; Benjamin, C. P.; Hession, C. J. Immunol. 1995, 154, 33-46) in PBS, pH 7.2, covered with plate sealers (Costar, Cat. No. 3095) and stored overnight at 4° C.
2) The coated plates were shook out and blotted dry.
3) TNFRp60-coated plates were blocked with 300 μl per well of PBS (0.05% Tween-20, 1% BSA, made from media prep) at 4° C. for one hour. Plates were stored for 3 weeks at 4° C. […]
14) The plates were read within 30 minutes of adding stop reagent at […] by microplate reader (Molecular Devices Co.) […]
Compounds that blocked TNF-α/TNFRp60 interaction prevented TNF-α from binding to immobilized TNFRp60 and gave a low absorbance reading. […]
An IC50 greater than 125 µM was found for `O=C(Nc1cccc(S(=O)(=O)Nc2cc3ccccc3cc2C(=O)O)c1)Nc1cccc(S(=O)(=O)Nc2cc3ccccc3cc2C(=O)O)c1` [BIO-002108-00, reference compound] in this work.

These compounds were tested against T2, CD40:CD154 interaction (Homo sapiens, UniProt P29965) (assay: Binding assay (ELISA): compound binds CD154 and inhibits binding of biotin-CD154 to immobilized CD40-Ig (Example 7)). Details: compounds 12 and 14-21: 'considered to have' the IC50 range (not worded as 'shown'); read-out: IC50 for CD40:CD154 binding interruption.
T2 construct: made in house; host or cells: Pichia (CD40-Ig only)
T2 sequence (P29965 116-261 limits assumed): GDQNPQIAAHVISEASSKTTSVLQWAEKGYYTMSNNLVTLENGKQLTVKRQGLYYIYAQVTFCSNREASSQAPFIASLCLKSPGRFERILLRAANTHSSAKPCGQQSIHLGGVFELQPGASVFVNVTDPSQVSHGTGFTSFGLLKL
From the text: as §1
Binding Assay to Assess whether a compound Binds CD154 and Inhibits CD40:CD154 Interaction
1) Ninety-six well plates of Nunc Maxisorp were coated with 100 μl of 5-10 μg/ml human CD40-Ig produced in Pichia cells, (in PBS pH 7.2) per well, covered with plate sealers (Costar, Cat. No. 3095) and stored overnight at 4° C.
2) The CD40-Ig-coated plates were shook out and blotted dry.
3) The CD40-Ig-coated plates were blocked with 300 μl per well of PBS (0.05% Tween-20, 1% BSA, pH 7.2) at RT for one hour or in the refrigerator for up to 3 weeks.
4) The CD40-Ig-coated plates were washed 3× with PBS+0.05% Tween-20 pH 7.4 with plate washer at RT.
5) The plates were optionally blotted dry.
6) Primary Screening of compounds: • a. Compounds were titrated in 100 mM Hepes+0.005% BSA pH 7.2 in Titertube (Bio-Rad Laboratories) and 50 μl of titrated compounds was then added into each well of the plate. IC50 parameters: • One 7 point curve per compound was generated where each point was run in triplicate. […] Fifty μl/well of 0.07-1.6 μg/ml biotin-CD154 in 100 mM Hepes+0.005% BSA (pH 7.2) was added per well. Final concentration of biotin-CD154 was […]. It was mixed with compound in each well in the plate. • c. The plates were covered with plate sealer and incubated for one-hour at RT.
7) The plates were washed 3× with plate washer with PBS+0.05% Tween-20 (pH 7.4) at RT.
8) The plates were optionally blotted dry.
9) 100 μl of a 1/300,000 dilution of HRP-Strep/Avidin (Jackson Immuno Research Code3 #016-030-084) was added to each well. Dilution buffer was: PBS+0.05% Tween-20. The plates were covered with plate sealer and incubated for one hour at room temperature.
10) The plates were washed with plate washer 3× at RT.
11) The plates were optionally blotted dry.
12) 100 μl/well of TMB(1-component) (Kirkegarrd & Perry Labs, Prod #50-76-04) was added to each well and incubated at RT about 10 min.
13) 100 μl/well of 0.18M H2SO4 was added to stop reaction in the plates.
14) The plates were read within 30 minutes of stopping the reaction at […] on a microplate reader (Molecular Devices Co.).
Compounds that bound to CD154 and blocked CD40:CD154 interaction prevented CD154 from binding to immobilized CD40-Ig and gave a low absorbance reading.
• 1. Total reaction: Reaction well contained 50 μl of 100 mM Hepes/0.005% BSA (no test compound) • 2. Positive control: Reaction well contained 10 μl of 1 mg/ml 5c8 (anti-CD154 mAb) and 50 μl of 100 mM Hepes/0.005% BSA. • 3. Blank control: Reaction well contained 100 μl 100 mM Hepes/0.005% BSA. • 4. Compound control: Titration series in triplicate of BIO-002108-00.
An IC50 of 50 to 125 µM was found for `CC(C)(C)[C@H](NC(=O)c1cc(-c2cc(C(=O)NCCCc3ccccc3)nc(C(=O)N3CCC[C@H]3CN3CCCC3)c2)cc(C(=O)N2CCC[C@H]2CN2CCCC2)n1)C(=O)O` [Compound 21] in this work. An IC50 of less than 50 µM was found for `O=C(NCCCCc1ccccc1)c1cc(-c2cc(C(=O)N[C@H](C(=O)O)C3CCCCC3)nc(C(=O)N3CCC[C@H]3CN3CCCC3)c2)cc(C(=O)N2CCC[C@H]2CN2CCCC2)n1` [Compound 15] in this work. An IC50 of 50 to 125 µM was found for `CCC(C)C(NC(=O)c1cc(-c2cc(C(=O)NCc3ccccc3Br)nc(C(=O)N3CCCC3CN(C)C3CCCCC3)c2)cc(C(=O)N2CCCC2CN(C)C2CCCCC2)n1)C(=O)O` (stereo not shown) [Compound 18] in this work. An IC50 of 50 to 125 µM was found for `O=C(NC/C=C/c1ccccc1)c1cc(-c2cc(C(=O)NC(C(=O)O)C3CCCCC3)nc(C(=O)N3CCCC3CN3CCCC3)c2)cc(C(=O)N2CCCC2CN2CCCC2)n1` (stereo not shown) [Compound 16] in this work. An IC50 of 50 to 125 µM was found for `CCC(C)C(NC(=O)c1cc(-c2cc(C(=O)NCc3ccccc3Br)nc(C(=O)N3CCCC3CN3CCCCC3)c2)cc(C(=O)N2CCCC2CN2CCCCC2)n1)C(=O)O` (stereo not shown) [Compound 19] in this work. An IC50 of 50 to 125 µM was found for `O=C(NCCCc1ccc(Br)cc1)c1cc(-c2cc(C(=O)N[C@H](C(=O)O)C3CCCCC3)nc(C(=O)N3CCC[C@H]3CN3CCCC3)c2)cc(C(=O)N2CCC[C@H]2CN2CCCC2)n1` [Compound 14] in this work. An IC50 of 50 to 125 µM was found for `COC(=O)[C@@H](NC(=O)c1cc(-c2cc(C(=O)NCCCc3ccccc3)nc(C(=O)N3CCC[C@H]3CN3CCCC3)c2)cc(C(=O)N2CCC[C@H]2CN2CCCC2)n1)C1CCCCC1` [Compound 20] in this work. An IC50 of 50 to 125 µM was found for `CCC(C)C(NC(=O)c1cc(-c2cc(C(=O)NCc3ccccc3Br)nc(C(=O)N3CCCC3CN(C)C)c2)cc(C(=O)N2CCCC2CN(C)C)n1)C(=O)O` (stereo not shown) [Compound 17] in this work. An IC50 of 50 to 125 µM was found for `O=C(NC1CCc2ccccc21)c1cc(-c2cc(C(=O)NC(C(=O)O)C3CCCCC3)nc(C(=O)N3CCCC3CN3CCCC3)c2)cc(C(=O)N2CCCC2CN2CCCC2)n1` (stereo not shown) [Compound 12] in this work.

Same assay, conditions: compounds 'shown to have' the IC50 range; assay of Example 7, top concentration 125 μM; read-out: IC50 for CD40:CD154 binding interruption
An IC50 of 50 to 125 µM was found for `CCC(C)C(NC(=O)c1cc(-c2cc(C(=O)NCc3ccccc3Br)nc(C(=O)N3CCCC3CN3CCCC3)c2)cc(C(=O)N2CCCC2CN2CCCC2)n1)C(=O)O` (stereo not shown) [Compound 1] in this work. An IC50 of less than 50 µM was found for `O=C(Nc1cccc(S(=O)(=O)Nc2cc3ccccc3cc2C(=O)O)c1)Nc1cccc(S(=O)(=O)Nc2cc3ccccc3cc2C(=O)O)c1` [BIO-002108-00, reference compound] in this work. An IC50 greater than 125 µM was found for `CCC(C)C(NC(=O)c1cc(-c2cc(C(=O)NC(C)(C)Cc3ccc(F)cc3)nc(C(=O)N3CCCC3CN3CCCC3)c2)cc(C(=O)N2CCCC2CN2CCCC2)n1)C(=O)O` (stereo not shown) [Compound 3] in this work. An IC50 of less than 50 µM was found for `O=C(NCCC(c1ccccc1)c1ccccc1)c1cc(-c2cc(C(=O)N[C@H](C(=O)O)C3CCCCC3)nc(C(=O)N3CCC[C@H]3CN3CCCC3)c2)cc(C(=O)N2CCC[C@H]2CN2CCCC2)n1` [Compound 5] in this work. An IC50 of less than 50 µM was found for `O=C(NCc1cccc(-c2ccccc2)c1)c1cc(-c2cc(C(=O)N[C@H](C(=O)O)C3CCCCC3)nc(C(=O)N3CCC[C@H]3CN3CCCC3)c2)cc(C(=O)N2CCC[C@H]2CN2CCCC2)n1` [Compound 6] in this work. An IC50 of less than 50 µM was found for `O=C(NCCC(c1ccccc1)c1ccc([N+](=O)[O-])cc1)c1cc(-c2cc(C(=O)NC(C(=O)O)C3CCCCC3)nc(C(=O)N3CCCC3CN3CCCC3)c2)cc(C(=O)N2CCCC2CN2CCCC2)n1` (stereo not shown) [Compound 11] in this work. An IC50 of 50 to 125 µM was found for `Nc1cccc(C(CCNC(=O)c2cc(-c3cc(C(=O)NC(C(=O)O)C4CCCCC4)nc(C(=O)N4CCCC4CN4CCCC4)c3)cc(C(=O)N3CCCC3CN3CCCC3)n2)c2ccccc2)c1` (stereo not shown) [Compound 10] in this work. An IC50 greater than 125 µM was found for `CCC(C)C(NC(=O)c1cc(-c2cc(C(=O)NCc3cccc(OC)c3OC)nc(C(=O)N3CCCC3CN3CCCC3)c2)cc(C(=O)N2CCCC2CN2CCCC2)n1)C(=O)O` (stereo not shown) [Compound 2] in this work. An IC50 of less than 50 µM was found for `O=C(NCCCc1ccccc1)c1cc(-c2cc(C(=O)NC(C(=O)O)C3CCCCC3)nc(C(=O)N3CCCC3CN3CCCC3)c2)cc(C(=O)N2CCCC2CN2CCCC2)n1` (stereo not shown) [Compound 4] in this work. An IC50 of 50 to 125 µM was found for `O=C(NCc1ccc2ccccc2c1)c1cc(-c2cc(C(=O)N[C@H](C(=O)O)C3CCCCC3)nc(C(=O)N3CCC[C@H]3CN3CCCC3)c2)cc(C(=O)N2CCC[C@H]2CN2CCCC2)n1` [Compound 13] in this work. An IC50 of 50 to 125 µM was found for `O=C(NCCCc1ccc([N+](=O)[O-])cc1)c1cc(-c2cc(C(=O)NC(C(=O)O)C3CCCCC3)nc(C(=O)N3CCCC3CN3CCCC3)c2)cc(C(=O)N2CCCC2CN2CCCC2)n1` (stereo not shown) [Compound 7] in this work. An IC50 of 50 to 125 µM was found for `Nc1ccc(CCCNC(=O)c2cc(-c3cc(C(=O)NC(C(=O)O)C4CCCCC4)nc(C(=O)N4CCCC4CN4CCCC4)c3)cc(C(=O)N3CCCC3CN3CCCC3)n2)cc1` (stereo not shown) [Compound 8] in this work.
